Measured values from patent US11629171B2, “Beta-hairpin peptidomimetics” (POLYPHOR AG, priority 2017, dated 2023).
Values after ≈ are worked out from the molar mass of the structure shown. Where a SMILES comes first, the peptide text is derived from it. Bridges are numbered along the chain shown (N, C = ends). Roman numbers before positions name the chains, in order. [ ]: non-standard residue; d: D form. The star is where a group is joined. Tle = CC(C)(C)[C@H](N)C(=O)O; Isovaleryl = CC(C)CC(=O)*; dDab = NCC[C@@H](N)C(=O)O; Dab = NCC[C@H](N)C(=O)O; Dap = NC[C@H](N)C(=O)O; NHCH2CH2OH = OCCN*

Key:
Assay type in all cases: cell-based
[1] = test system: Klebsiella pneumoniae 968733; settings: 968733
Method: (§1) The in vitro antimicrobial activities of the peptides were determined in 96-well plates (Greiner, polystyrene) by the standard CLSI broth microdilution method (Clinical and Laboratory Standards Institute 2014. Performance standards for antimicrobial susceptibility testing, 24th informational supplement. Approved standard CLSI M100-S24; Clinical and Laboratory Standards Institute, Wayne, Pa.). The following microorganisms were used to determine antibiotic activity of the peptides: Escherichia coli ATCC 25922, Klebsiella pneumoniae SSI #3010^a), Acinetobacter baumannii DSM 30008, Pseudomonas aeruginosa ATCC 27853 and the clinical isolates Escherichia coli 926415^b), Klebsiella pneumoniae 968733^b), Acinetobacter baumannii 872842^b), Enterobacter cloacae 848840^b) and Escherichia coli MCR-1 Af45^c). Before preparation of inocula, Escherichia coli MCR-1 Af45 was subcultured on Mueller-Hinton II (MH-cation adjusted) agar containing 2 μg/mL colistin. ^a) Obtained from Statens Serum Institut (SSI), Copenhagen, Denmark^b) Obtained from International Health Management Associates, Inc. (IHMA Europe Sàrl), Epalinges, Switzerland^c) Obtained from Prof. Patrice Nordmann, University of Fribourg, Fribourg, Switzerland
(§2) Inocula of the microorganisms were diluted into Mueller-Hinton II (MH-cation adjusted) broth and compared with a 0.5 McFarland standard to give appr. 10^6 colony forming units (CFU)/mL. Aliquots (90 μL) of inoculum were added to 10 μL of MH-II broth+P-80 (Polysorbate 80, 0.002% final concentration, v/v) containing the peptide in serial two-fold dilutions. Antimicrobial activities of the peptides were expressed as the minimal inhibitory concentration (MIC) in μg/mL at which no visible growth was observed after 18-20 hours of incubation at 35° C.

[2] = test system: Escherichia coli ATCC 25922; settings: ATCC 25922
Method: as §1, §2

[3] = test system: Klebsiella pneumoniae SSI #3010; settings: SSI #3010
Method: as §1, §2

[4] = test system: Acinetobacter baumannii 872842; settings: 872842
Method: as §1, §2

[5] = test system: Acinetobacter baumannii DSM 30008; settings: DSM 30008
Method: as §1, §2

[6] = test system: Enterobacter cloacae 848840; settings: 848840
Method: as §1, §2

Escherichia coli 926415 = settings: 926415
Method: as §1, §2

[7] = test system: Pseudomonas aeruginosa ATCC 27853; settings: ATCC 27853
Method: as §1, §2

[8] = test system: human red blood cells (hRBC); assay: Hemolysis; settings: red cells of human, 1 h, 200
Procedure, shortened: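 Percent hemolysis relative to 2% Triton X-100 (100%) and PBS/10% water (0%), from blank-corrected OD540 of diluted supernatants. Peptides tested at 200 μg/mL against 20% (v/v) washed human erythrocytes, 1 h, 37° C, shaking at 300 rpm.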

Row | SMILES | MIC [1] [µg/mL] | MIC [2] [µg/mL] | MIC [3] [µg/mL] | MIC [4] [µg/mL] | MIC [5] [µg/mL] | MIC [6] [µg/mL] | MIC (Escherichia coli 926415) [µg/mL] | MIC [7] [µg/mL] | Hemolysis at 200 μg/mL [8] [%]
1 | CC(=O)N[C@H](C(=O)N[C@H]1CSSC[C@@H](C(=O)N[C@@H](CO)C(N)=O)NC(=O)[C@H](C(C)C)NC(=O)[C@H](CCC(=O)O)NC(=O)[C@H](Cc2c[nH]c3ccccc23)NC(=O)[C@H](CCN)NC(=O)[C@@H](CCN)NC(=O)[C@H](CCC(=O)N[C@@H](CCN)C(=O)N[C@H](C(=O)N[C@@H](CN)C(=O)N[C@H]2CCNC(=O)[C@H]([C@@H](C)O)NC(=O)[C@H](CCN)NC(=O)[C@H](CCN)NC(=O)[C@H](CC(C)C)NC(=O)[C@@H](CC(C)C)NC(=O)[C@H](CCN)NC2=O)[C@@H](C)O)NC(=O)[C@H](CCN)NC(=O)[C@H](Cc2ccc(O)cc2)NC1=O)C(C)C [Ex. 153] (I: Ac-VCY[Dab]E[dDab][Dab]WEVCS-NH2 / II: [Dab]T[Dap][Dab][Dab][dL]L[Dab][Dab]T; disulfide I:2-I:11; amide I:5-II:N; lactam II:4-II:C) | 0.25 (≈ 0.102 µM) | 0.0625 (≈ 0.0255 µM) | 0.0625 (≈ 0.0255 µM) | 0.0625 (≈ 0.0255 µM) | 0.03125 (≈ 0.0127 µM) | 0.125 (≈ 0.0509 µM) | 0.125 (≈ 0.0509 µM) | 0.125 (≈ 0.0509 µM) | <1
2 | CC(=O)N[C@@H](CCN)C(=O)N[C@@H](CC(C)C)C(=O)N[C@H]1CSSC[C@@H](C(=O)N[C@H](C(N)=O)C(C)C)NC(=O)[C@H](C(C)(C)C)NC(=O)[C@@H]2CSSC[C@H](NC(=O)[C@H](Cc3ccc(O)cc3)NC1=O)C(=O)N[C@@H](CCC(=O)N[C@@H](CCN)C(=O)N[C@H](C(=O)N[C@@H](CN)C(=O)N[C@H]1CCNC(=O)[C@H]([C@@H](C)O)NC(=O)[C@H](CCN)NC(=O)[C@H](CCN)NC(=O)[C@H](CC(C)C)NC(=O)[C@@H](CC(C)C)NC(=O)[C@H](CCN)NC1=O)[C@@H](C)O)C(=O)N[C@H](CCN)C(=O)N[C@@H](CCN)C(=O)N[C@@H](Cc1c[nH]c3ccccc13)C(=O)N2 [Ex. 234] (I: Ac-[Dab]LCYCE[dDab][Dab]WC[Tle]CV-NH2 / II: [Dab]T[Dap][Dab][Dab][dL]L[Dab][Dab]T; disulfide I:3-I:12, I:5-I:10; amide I:6-II:N; lactam II:4-II:C) | 1 (≈ 0.389 µM) | 0.125 (≈ 0.0487 µM) | 0.25 (≈ 0.0973 µM) | 0.25 (≈ 0.0973 µM) | 0.25 (≈ 0.0973 µM) | 0.5 (≈ 0.195 µM) | 0.25 (≈ 0.0973 µM) | 0.5 (≈ 0.195 µM) | 9
3 | CNC(=O)[C@H](CO)NC(=O)[C@@H]1CSSC[C@H](NC(=O)[C@@H](NC(C)=O)C(C)C)C(=O)N[C@@H](Cc2ccc(O)cc2)C(=O)N[C@@H](CCN)C(=O)N[C@@H](CCC(=O)N[C@@H](CCN)C(=O)N[C@H](C(=O)N[C@@H](CN)C(=O)N[C@H]2CCNC(=O)[C@H]([C@@H](C)O)NC(=O)[C@H](CCN)NC(=O)[C@H](CCN)NC(=O)[C@H](CC(C)C)NC(=O)[C@@H](CC(C)C)NC(=O)[C@H](CCN)NC2=O)[C@@H](C)O)C(=O)N[C@H](CCN)C(=O)N[C@@H](CO)C(=O)N[C@@H](Cc2c[nH]c3ccccc23)C(=O)N[C@@H](CO)C(=O)N[C@@H](C(C)(C)C)C(=O)N1 [Ex. 145] (I: Ac-VCY[Dab]E[dDab]SWS[Tle]CS-NHMe / II: [Dab]T[Dap][Dab][Dab][dL]L[Dab][Dab]T; disulfide I:2-I:11; amide I:5-II:N; lactam II:4-II:C) | 0.125 (≈ 0.0515 µM) | 0.0625 (≈ 0.0258 µM) | 0.125 (≈ 0.0515 µM) | 0.03125 (≈ 0.0129 µM) | 0.0625 (≈ 0.0258 µM) | 0.125 (≈ 0.0515 µM) | 0.0625 (≈ 0.0258 µM) | 0.125 (≈ 0.0515 µM) | 2

The next lines start with results.

Row | MIC [1] [µg/mL] | MIC [2] [µg/mL] | MIC [3] [µg/mL] | MIC [4] [µg/mL] | MIC [5] [µg/mL] | MIC [6] [µg/mL] | MIC (Escherichia coli 926415) [µg/mL] | MIC [7] [µg/mL] | SMILES | Hemolysis at 200 μg/mL [8] [%]
4 | 2 (≈ 0.86 µM) | 0.125 (≈ 0.0537 µM) | 0.5 (≈ 0.215 µM) | 1 (≈ 0.43 µM) | 0.125 (≈ 0.0537 µM) | 4 (≈ 1.72 µM) | 1 (≈ 0.43 µM) | 0.125 (≈ 0.0537 µM) | CC(C)CC(=O)N[C@H]1CSSC[C@@H](C(=O)NCCO)NC(=O)[C@H](C(C)(C)C)NC(=O)[C@H](CO)NC(=O)[C@H](Cc2c[nH]c3ccccc23)NC(=O)[C@H]([C@@H](C)O)NC(=O)[C@@H](CCN)NC(=O)[C@H](CCC(=O)N[C@@H](CCN)C(=O)N[C@H](C(=O)N[C@@H](CCN)C(=O)N[C@H]2CCNC(=O)[C@H]([C@@H](C)O)NC(=O)[C@H](CCN)NC(=O)[C@H](CCN)NC(=O)[C@H](CC(C)C)NC(=O)[C@@H](CC(C)C)NC(=O)[C@H](CCN)NC2=O)[C@@H](C)O)NC(=O)[C@H](CN)NC(=O)[C@H](Cc2ccc(O)cc2)NC1=O [Example 1] (I: Isovaleryl-CY[Dap]E[dDab]TWS[Tle]C-NHCH2CH2OH / II: [Dab]T[Dab][Dab][Dab][dL]L[Dab][Dab]T; disulfide I:1-I:10; amide I:4-II:N; lactam II:4-II:C) | <1
5 | 0.125 (≈ 0.0518 µM) | 0.125 (≈ 0.0518 µM) | 0.0625 (≈ 0.0259 µM) | 0.0625 (≈ 0.0259 µM) | 0.0625 (≈ 0.0259 µM) | 0.25 (≈ 0.104 µM) | 0.0625 (≈ 0.0259 µM) | 0.125 (≈ 0.0518 µM) | CC(=O)N[C@H](C(=O)N[C@H]1CSSC[C@@H](C(=O)N[C@@H](CO)C(N)=O)NC(=O)[C@H](C(C)(C)C)NC(=O)[C@H](CO)NC(=O)[C@H](Cc2c[nH]c3ccccc23)NC(=O)[C@H](CCN)NC(=O)[C@@H](CCN)NC(=O)[C@H](CCC(=O)N[C@@H](CCN)C(=O)N[C@H](C(=O)N[C@@H](CN)C(=O)N[C@H]2CCNC(=O)[C@H]([C@@H](C)O)NC(=O)[C@H](CCN)NC(=O)[C@H](CCN)NC(=O)[C@H](CC(C)C)NC(=O)[C@@H](CC(C)C)NC(=O)[C@H](CCN)NC2=O)[C@@H](C)O)NC(=O)[C@H](CN)NC(=O)[C@H](Cc2ccc(O)cc2)NC1=O)C(C)C [Ex. 120] (I: Ac-VCY[Dap]E[dDab][Dab]WS[Tle]CS-NH2 / II: [Dab]T[Dap][Dab][Dab][dL]L[Dab][Dab]T; disulfide I:2-I:11; amide I:5-II:N; lactam II:4-II:C) | 1
6 | 0.5 (≈ 0.206 µM) | 0.0625 (≈ 0.0257 µM) | 0.125 (≈ 0.0515 µM) | 0.125 (≈ 0.0515 µM) | 0.0625 (≈ 0.0257 µM) | 0.125 (≈ 0.0515 µM) | 0.125 (≈ 0.0515 µM) | 0.125 (≈ 0.0515 µM) | CC(=O)N[C@H](C(=O)N[C@H]1CSSC[C@@H](C(=O)N[C@@H](CO)C(N)=O)NC(=O)[C@H](C(C)(C)C)NC(=O)[C@H](CO)NC(=O)[C@H](Cc2c[nH]c3ccccc23)NC(=O)[C@H]([C@@H](C)O)NC(=O)[C@@H](CCN)NC(=O)[C@H](CCC(=O)N[C@@H](CCN)C(=O)N[C@H](C(=O)N[C@@H](CCN)C(=O)N[C@H]2CCNC(=O)[C@H]([C@@H](C)O)NC(=O)[C@H](CCN)NC(=O)[C@H](CCN)NC(=O)[C@H](CC(C)C)NC(=O)[C@@H](CC(C)C)NC(=O)[C@H](CCN)NC2=O)[C@@H](C)O)NC(=O)[C@H](CO)NC(=O)[C@H](Cc2ccc(O)cc2)NC1=O)C(C)C [Ex. 46] (I: Ac-VCYSE[dDab]TWS[Tle]CS-NH2 / II: [Dab]T[Dab][Dab][Dab][dL]L[Dab][Dab]T; disulfide I:2-I:11; amide I:5-II:N; lactam II:4-II:C) | 2
7 | 0.25 (≈ 0.108 µM) | 0.0625 (≈ 0.027 µM) | 0.125 (≈ 0.0541 µM) | 0.0625 (≈ 0.027 µM) | 0.125 (≈ 0.0541 µM) | 0.25 (≈ 0.108 µM) | 0.5 (≈ 0.216 µM) | 0.125 (≈ 0.0541 µM) | CC(=O)N[C@H](C(=O)N[C@H]1CSSC[C@@H](C(N)=O)NC(=O)[C@H](C(C)(C)C)NC(=O)[C@H](CO)NC(=O)[C@H](Cc2c[nH]c3ccccc23)NC(=O)[C@H](CO)NC(=O)[C@@H](CCN)NC(=O)[C@H](CCC(=O)N[C@@H](CCN)C(=O)N[C@H](C(=O)N[C@@H](CN)C(=O)N[C@H]2CCNC(=O)[C@H]([C@@H](C)O)NC(=O)[C@H](CCN)NC(=O)[C@H](CCN)NC(=O)[C@H](CC(C)C)NC(=O)[C@@H](CC(C)C)NC(=O)[C@H](CCN)NC2=O)[C@@H](C)O)NC(=O)[C@H](CN)NC(=O)[C@H](Cc2ccc(O)cc2)NC1=O)C(C)C [Example 8] (I: Ac-VCY[Dap]E[dDab]SWS[Tle]C-NH2 / II: [Dab]T[Dap][Dab][Dab][dL]L[Dab][Dab]T; disulfide I:2-I:11; amide I:5-II:N; lactam II:4-II:C) | <1
